{
  "source": "paper PMC5684143",
  "about": "“New melanocortin-like peptide of E. coli can suppress inflammation via the mammalian melanocortin-1 receptor (MC1R): possible endocrine-like function for microbes of the gut” (NPJ Biofilms and Microbiomes, 2017)",
  "test_system": "Balb/C mice",
  "test": "Cecal ligation and puncture (CLP) polymicrobial sepsis, survival (protocol A)",
  "format": "in vivo",
  "experimental": "In vivo studies were performed in accordance with National Institutes of Health guidelines and with the approval of the North Shore-Long Island Jewish Health System’s Institutional Animal Care and Use Committee (IACUC). In mice, polymicrobial sepsis was induced by surgical ligation and perforation of the cecum, a widely used technique known as CLP. Briefly, male BALB/c mice (7–8 weeks old, 20–25 g) were anesthetized with a mixture of ketamine (100 mg/kg) and xylazine (8 mg/kg) intramuscularly, and a 15 mm midline incision was made to expose the cecum. After ligation of the cecum with a 6.0 silk suture below the junction of the ileo–cecal valve, the ligated cecal stump was perforated once with a 22-gauge needle. […] Survival was monitored twice daily for 2 weeks, at which time survivors were killed (CO2 asphyxia). […] Survival was monitored twice daily after surgery. […]\nKaplan–Meier analysis was used to determine statistical significance of the differences in survival of mice. p ≦ 0.05 was considered significant. Values in the figures were expressed as mean(±)S.E.M. of two or three independent experiments, where each experimental point was derived from duplicates or triplicates. […]\nFig. 6 MECO-1 rescues mice from lethal sepsis. a Endotoxin. […] Survival was monitored daily for 2 weeks. […] Animals were monitored for survival for 14 days. […]",
  "data": [
    {"substance": "alpha-melanocyte-stimulating hormone [alpha-MSH]", "values": [
      {"measurement": "survival at day 14 after CLP", "setting": "5 mg/kg (high dose) i.p. twice daily, six doses starting 24 h post-surgery, n = 10, saline 15%", "value": "around 50%"},
      {"measurement": "overall survival after CLP polymicrobial sepsis", "setting": "three experiments pooled, untreated 23% (9 of 39), alpha-MSH 15 of 22, MECO-1 42 of 64", "value": 68, "unit": "%"}
    ]}
  ]
}
